Reference: patent publication US20190241535A1, “3-SUBSTITUTED CARBONYL-NAPHTHO[2,3-B]FURANE DERIVATIVE OR PHARMACEUTICALLY ACCEPTABLE SALT THEREOF” (Boston Biomedical, Inc., priority 2014, published 2019)
Converted amounts (≈) assume the structure as drawn. Structures can show the parent of a compound that is named as a salt. Where two headings read alike, the source gives them in different places.

Legend:
FaDu cell [1] = test: Test 1: growth inhibition in cancer cell (Bulk IC50); format: cell-based; conditions: Homo sapiens, 96 h, adherent culture, incubated 4 days, CellTiter-Glo
Method: (§1) HCT-116 cell, HT-29 cell, and FaDu cell were obtained from the American Type Culture Collection (ATCC). HCT-116 cell and HT-29 cell were cultivated at 37° C. in the presence of 5% CO2 using McCoy's 5a medium containing 10% fetal bovine serum (FBS), and 1% penicillin/streptomycin; and FaDu cell was cultivated at 37° C. in the presence of 5% CO2 using MEM containing 10% FBS, 1% non-essential amino acid, 1% sodium pyruvate, and 1% penicillin/streptomycin. Each cell was seeded on μClear-plate black 384 wells (Greiner bio-one Cat. No. 781091) in 300-600 cells/well, and then each test sample was added thereto to adjust the final concentration thereof in DMSO to 0.1% and the test wells were incubated for 4 days. And then, the viable cell count of each sample was measured using CellTiter-Glo® Luminescent Cell Viability Assay (Promega), and the concentration to inhibit the cell growth in each test sample by 50% was calculated (Bulk IC50 Value; μM).

HT-29 cell [2] = test: as above; format: cell-based; conditions: Homo sapiens, 96 h, adherent culture, incubated 4 days, CellTiter-Glo
Method: as §1

HCT-116 cell [3] = test: as above; format: cell-based; conditions: Homo sapiens, 96 h, adherent culture, incubated 4 days, CellTiter-Glo
Method: as §1

FaDu cell [4] = test: Test 2: inhibition of forming cancer cell sphere (Sphere IC50); format: cell-based; conditions: Homo sapiens, 96 h, ultra-low attachment plate, serum-free sphere medium, 4 days, CellTiter-Glo
Method: (§2) HCT-116 cell, HT-29 cell, and FaDu cell were obtained from the American Type Culture Collection (ATCC). HCT-116 cell and HT-29 cell were cultivated at 37° C. in the presence of 5% CO2 using McCoy's 5a medium containing 10% fetal bovine serum (FBS), and 1% penicillin/streptomycin; and FaDu cell was cultivated at 37° C. in the presence of 5% CO2 using MEM containing 10% FBS, 1% non-essential amino acid, 1% sodium pyruvate, and 1% penicillin/streptomycin. Each of HCT-116 cell, HT-29 cell, and FaDu cell was seeded on 384 Wells Black Clear Bottom Ultra-Low Attachment Microplate (Corning Cat. No. 3827) in 350-800 cells/well, with DMEM/F12 medium containing 2% B27 supplement (GIBCO), 20 ng/mL epidermal growth factor (EGF) (peprotech), 10 ng/mL basic fibroblast growth factor (bFGF) (peprotech), 5 μg/mL insulin (Sigma), and 1% penicillin/streptomycin. Each test sample was added thereto to adjust the final concentration thereof in DMSO to 0.1% and the test wells were incubated for 4 days. And then, the viable cell count of each sample was measured using CellTiter-Glo® Luminescent Cell Viability Assay (Promega), and the concentration to inhibit the cell growth in each test sample by 50% was calculated (Sphere IC50 Value;μM).

HT-29 cell [5] = test: as above; format: cell-based; conditions: Homo sapiens, 96 h, ultra-low attachment plate, serum-free sphere medium, 4 days, CellTiter-Glo
Method: as §2

HCT-116 cell [6] = test: as above; format: cell-based; conditions: Homo sapiens, 96 h, ultra-low attachment plate, serum-free sphere medium, 4 days, CellTiter-Glo
Method: as §2

Test 3: solubility test = format: physicochemical; conditions: kinetic from dmso stock, 1% DMSO, HPLC
Method: Each 15 μL of each test sample (10 mM DMSO solution) was dispensed into 4 Utubes on a 96 well rack. Then, each sample was evaporated to dryness with a rotary evaporator. 3 μL of DMSO was added to each dried sample to be re-dissolved. And, 300 μL of pH 7.4 buffer was added to the 2 wells and 300 μL of pH 1.2 buffer was added to the other 2 wells. After shaking each sample solution, the samples were still stood. Then, each sample solution was centrifuged to remove insoluble matter, and 100 μL of the supernatant was picked up on a 96 well plate. Separately, 2 μL of each test sample (10 mM DMSO solution) was dispensed on a 96 well plate, and diluted with 198 μL of 50% acetonitrile to prepare each 100 μM standard solution. Further, the 100 μM standard solution was diluted with 50% acetonitrile to prepare each 10 μM standard solution. The above test samples for the solubility test and the two kinds of the standard samples were analyzed with a HPLC. The solubility of each test sample was calculated as an area ratio per the standard solutions.

[7] = aqueous buffer, pH 7.4 buffer, read-out: Solubility pH 7.4
[8] = simulated gastric fluid, pH 1.2 buffer, read-out: Solubility pH 1.2

## COC(=O)c1c(C(C)(OC)OC)oc2c1C(=O)c1ccccc1C2=O [Example 1, Methyl 2-(1,1-dimethoxyethyl)-4,9-dioxo-4,9-dihydronaphtho[2,3-b]furan-3-carboxylate]
FaDu cell [1]
  IC50: 0.38 µM
HT-29 cell [2]
  IC50: 2.25 µM
HCT-116 cell [3]
  IC50: 0.44 µM
FaDu cell [4]
  IC50: 2.15 µM
HT-29 cell [5]
  IC50: 2.18 µM
HCT-116 cell [6]
  IC50: 1.73 µM

## COC(=O)c1c(C(C)=O)oc2c1C(=O)c1ccccc1C2=O [Example 2, Methyl 2-acetyl-4,9-dioxo-4,9-dihydronaphtho[2,3-b]furan-3-carboxylate]
FaDu cell [1]
  IC50: 0.32 µM
HT-29 cell [2]
  IC50: 0.34 µM
HCT-116 cell [3]
  IC50: 0.28 µM
Test 3: solubility test; [7]
  solubility: 0.0005 mg/mL (≈ 1.68 µM)
Test 3: solubility test; [8]
  solubility: 0.0008 mg/mL (≈ 2.68 µM)
FaDu cell [4]
  IC50: 0.59 µM
HT-29 cell [5]
  IC50: 0.4 µM
HCT-116 cell [6]
  IC50: 0.38 µM

## CC(=O)c1oc2c(c1C(=O)N(C)C)C(=O)c1ccccc1C2=O [Example 4, 2-Acetyl-N,N-dimethyl-4,9-dioxo-4,9-dihydronaphtho[2,3-b]furan-3-carboxamide]
FaDu cell [1]
  IC50: 0.56 µM
HT-29 cell [2]
  IC50: 0.71 µM
HCT-116 cell [3]
  IC50: 0.59 µM
Test 3: solubility test; [7]
  solubility: 0.107 mg/mL (≈ 344 µM)
Test 3: solubility test; [8]
  solubility: 0.115 mg/mL (≈ 369 µM)
FaDu cell [4]
  IC50: 0.71 µM
HT-29 cell [5]
  IC50: 0.85 µM
HCT-116 cell [6]
  IC50: 3.36 µM

## CC(=O)c1oc2c(c1C(=O)N1CCN(C)CC1)C(=O)c1ccccc1C2=O [Example 5, 2-Acetyl-3-(4-methylpiperazine-1-carbonyl)naphtho[2,3-b]furan-4,9-dione hydrochloride]
FaDu cell [1]
  IC50: 0.54 µM
HT-29 cell [2]
  IC50: 0.57 µM
HCT-116 cell [3]
  IC50: 0.62 µM
Test 3: solubility test; [7]
  solubility: 0.127 mg/mL
Test 3: solubility test; [8]
  solubility: 0.152 mg/mL
FaDu cell [4]
  IC50: 0.66 µM
HT-29 cell [5]
  IC50: 0.6 µM
HCT-116 cell [6]
  IC50: 3.1 µM

## COC(=O)c1c(C(F)(F)F)oc2c1C(=O)c1ccccc1C2=O [Example 6, Methyl 4,9-dioxo-2-(trifluoromethyl)-4,9-dihydronaphtho[2,3-b]furan-3-carboxylate]
FaDu cell [1]
  IC50: 2.61 µM
HT-29 cell [2]
  IC50: 2.84 µM
HCT-116 cell [3]
  IC50: 2.35 µM
FaDu cell [4]
  IC50: 3.63 µM
HT-29 cell [5]
  IC50: 3.05 µM
HCT-116 cell [6]
  IC50: 2.83 µM

## CN(C)C(=O)c1c(-c2ccc(F)cc2)oc2c1C(=O)c1ccccc1C2=O [Example 11, 2-(4-Fluorophenyl)-N,N-dimethyl-4,9-dioxo-4,9-dihydronaphtho[2,3-b]furan-3-carboxamide]
FaDu cell [1]
  IC50: 4.47 µM
HT-29 cell [2]
  IC50: 5.76 µM
HCT-116 cell [3]
  IC50: 5.31 µM
Test 3: solubility test; [7]
  solubility: < 0.0001 mg/mL
Test 3: solubility test; [8]
  solubility: < 0.0001 mg/mL
FaDu cell [4]
  IC50: 4.46 µM
HT-29 cell [5]
  IC50: 5.84 µM
HCT-116 cell [6]
  IC50: 5.43 µM

## COC(=O)c1c(-c2cccnc2)oc2c1C(=O)c1ccccc1C2=O [Example 12, Methyl 4,9-dioxo-2-(pyridin-3-yl)-4,9-dihydronaphtho[2,3-b]furan-3-carboxylate]
FaDu cell [1]
  IC50: 2.34 µM
HT-29 cell [2]
  IC50: > 10 µM
HCT-116 cell [3]
  IC50: 6.96 µM
FaDu cell [4]
  IC50: 5.79 µM
HT-29 cell [5]
  IC50: > 10 µM
HCT-116 cell [6]
  IC50: > 10 µM

## CC(=O)c1oc2c(c1C(=O)N1CCOCC1)C(=O)c1ccccc1C2=O [Example 14, 2-Acetyl-3-(morpholine-4-carbonyl)naphtho[2,3-b]furan-4,9-dione]
FaDu cell [1]
  IC50: 0.75 µM
HT-29 cell [2]
  IC50: 3.58 µM
HCT-116 cell [3]
  IC50: 0.74 µM
Test 3: solubility test; [7]
  solubility: 0.121 mg/mL (≈ 342 µM)
Test 3: solubility test; [8]
  solubility: 0.131 mg/mL (≈ 371 µM)
FaDu cell [4]
  IC50: 0.54 µM
HT-29 cell [5]
  IC50: 0.71 µM
HCT-116 cell [6]
  IC50: 1.8 µM

## CN(C)C(=O)c1c(C(F)(F)F)oc2c1C(=O)c1ccccc1C2=O [Example 21, N,N-dimethyl-4,9-dioxo-2-(trifluoromethyl)-4,9-dihydronaphtho[2,3-b]furan-3-carboxamide]
FaDu cell [1]
  IC50: 0.3 µM
HT-29 cell [2]
  IC50: 0.3 µM
HCT-116 cell [3]
  IC50: 0.27 µM
Test 3: solubility test; [7]
  solubility: 0.038 mg/mL (≈ 113 µM)
Test 3: solubility test; [8]
  solubility: 0.063 mg/mL (≈ 187 µM)
FaDu cell [4]
  IC50: 0.41 µM
HT-29 cell [5]
  IC50: 0.32 µM
HCT-116 cell [6]
  IC50: 0.32 µM
